Measurements as given in patent US7964221B2, “Composition and methods of use of an immunomodulator” (priority 2006, dated 2011).

What was measured:
CD4 cells = test: 32-week three-arm trial in HIV-infected individuals: CD4 cell counts; assay type: in vivo, human; settings: for Change in CD4 cell counts from baseline: OT analysis
From the text: (§1) All participants were antiretroviral drug naive.
(§2) Laboratory abnormalities were graded.

[1] = 32-week three-arm HIV trial: body weight; assay type: in vivo, human
From the text: as §1, §2

zidovudine (AZT), lamividine (3TC), and efavirenz (EFV) [AZT/3TC/EFV]
Change in CD4 cell counts from baseline (CD4 cells; 12 weeks of treatment): +122 cells/mm^3
Change in CD4 cell counts from baseline (CD4 cells; 20 weeks): +108 cells/mm^3
Change in CD4 cell counts from baseline (CD4 cells; 32 weeks): +102 cells/mm^3
CD4 counts After (CD4 cells; after therapy): 463
CD4 counts Before (CD4 cells; before therapy (baseline)): 361
Body weight After ([1]; after therapy): 65.6
Mean values for baseline body weight ([1]; baseline, mean ± SD): 64.2 ± 8.9 kg
Body weight Before ([1]; before therapy): 64.2
Mean weight values at the end of study ([1]; end of study): 65.6 ± 7.3 kg
Average weight gain ([1]; week 32): 1.4 kg
